From ChEMBL document CHEMBL1201862, “PubChem BioAssay data set” (2004)
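Cultured in 96-well plates, cells were exposed to test compound for 48 hours across five concentrations. At the GI50, growth is halved.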 Calls of active or inactive are those of the source. No stated cut-off is given here; in the data, active = GI50 up to about 1.1 µM and inactive = higher. Where a SMILES comes first, the peptide text is derived from it. The star is where a group is joined. Boc = CC(C)(C)OC(=O)*

How the values were obtained:
Test in all cases: inhibition of tumour cell growth, NCI panel, 48 h
SK-OV-3 = test system: SK-OV-3
NCI-H226 = test system: NCI-H226
ACHN = test system: ACHN
IGROV-1 = test system: IGROV-1
HOP-62 = test system: HOP-62
A549 = test system: A549
MDA-MB-435 = test system: MDA-MB-435
OVCAR-5 = test system: OVCAR-5
HL-60 = test system: HL-60
MDA-MB-231 = test system: MDA-MB-231
Hs-578T = test system: Hs-578T
HCT-116 = test system: HCT-116
NCI-H23 = test system: NCI-H23
SK-MEL-28 = test system: SK-MEL-28
HOP-92 = test system: HOP-92
NCI-H522 = test system: NCI-H522
DU-145 = test system: DU-145
MDA-N = test system: MDA-N
EKVX = test system: EKVX

Structure (SMILES)	GI50 (SK-OV-3)	GI50 (NCI-H226)	GI50 (ACHN)	GI50 (IGROV-1)	GI50 (HOP-62)	GI50 (A549)	GI50 (MDA-MB-435)	GI50 (OVCAR-5)	GI50 (HL-60)	GI50 (MDA-MB-231)	GI50 (Hs-578T)	GI50 (HCT-116)	GI50 (NCI-H23)	GI50 (SK-MEL-28)	GI50 (HOP-92)	GI50 (NCI-H522)	GI50 (DU-145)	GI50 (MDA-N)	GI50 (EKVX)
CC(=O)OCC1OC(n2nc(Cc3ccccc3)c(=S)[nH]c2=S)C(OC(C)=O)C(OC(C)=O)C1OC(C)=O (stereo not drawn)	50.7 µM (inactive)	54.1 µM (inactive)	> 100 µM (inactive)	25 µM (inactive)	22 µM (inactive)	84.1 µM (inactive)	18.1 µM (inactive)	> 100 µM (inactive)	0.583 µM (active)	14.7 µM (inactive)	20.2 µM (inactive)	21.3 µM (inactive)	20.3 µM (inactive)	42.8 µM (inactive)	20.4 µM (inactive)	21.4 µM (inactive)	25.4 µM (inactive)		
COC(=O)c1ccccc1/C=C1\Cc2c(ccc3c2CCC3)C1=O		> 100 µM (inactive)	> 100 µM (inactive)	> 100 µM (inactive)	80.5 µM (inactive)	> 100 µM (inactive)	> 100 µM (inactive)	> 100 µM (inactive)	> 100 µM (inactive)		> 100 µM (inactive)	> 100 µM (inactive)	> 100 µM (inactive)	> 100 µM (inactive)	85.9 µM (inactive)	> 100 µM (inactive)	> 100 µM (inactive)	> 100 µM (inactive)	> 100 µM (inactive)
O=C(O)C1=CN(c2ccncc2)C(c2ccco2)=CC1c1ccccc1[N+](=O)[O-] (stereo not drawn)	16.3 µM (inactive)	4.72 µM (inactive)	2.1 µM (inactive)	2 µM (inactive)	13.8 µM (inactive)	15.6 µM (inactive)	15.1 µM (inactive)	7.13 µM (inactive)	3.19 µM (inactive)	14.6 µM (inactive)	14.4 µM (inactive)	1.96 µM (inactive)	14.5 µM (inactive)	12.8 µM (inactive)	11.9 µM (inactive)	3.22 µM (inactive)	13.5 µM (inactive)		6.58 µM (inactive)
O=C(NCCNCCO)c1cccc2ccc(-c3ccccc3)nc12	8.13 µM (inactive)	4.46 µM (inactive)	2.26 µM (inactive)	3.12 µM (inactive)	10.3 µM (inactive)	2.93 µM (inactive)		4.8 µM (inactive)	3.17 µM (inactive)			2.73 µM (inactive)	4.68 µM (inactive)	10.4 µM (inactive)	3.18 µM (inactive)				5.94 µM (inactive)
CCc1n[nH]c(=O)n1N1C(=O)C2CC=CCC2C1=O (stereo not drawn)	> 100 µM (inactive)	> 100 µM (inactive)	> 100 µM (inactive)	> 100 µM (inactive)	> 100 µM (inactive)	> 100 µM (inactive)	> 100 µM (inactive)	> 100 µM (inactive)		> 100 µM (inactive)	> 100 µM (inactive)	> 100 µM (inactive)	> 100 µM (inactive)		> 100 µM (inactive)	> 100 µM (inactive)		> 100 µM (inactive)	> 100 µM (inactive)
CC(C)(C)OC(=O)NCC(=O)NCC(=O)NCC(=O)NCC(=O)O (Boc-GGGG-OH)	> 100 µM (inactive)		> 100 µM (inactive)	> 100 µM (inactive)	> 100 µM (inactive)	> 100 µM (inactive)	> 100 µM (inactive)	> 100 µM (inactive)	> 100 µM (inactive)	> 100 µM (inactive)	66.1 µM (inactive)	> 100 µM (inactive)	> 100 µM (inactive)	> 100 µM (inactive)	> 100 µM (inactive)	> 100 µM (inactive)	> 100 µM (inactive)		> 100 µM (inactive)
